{"source": "paper doi:10.1101/252742v1", "about": "(bioRxiv, 2018)", "key": {"[1]": {"tested_on": "normal oral keratinocytes (NOKs), human tonsillar epithelial cells (HTEs), HaCaT keratinocytes and MCF10A cells", "assay": "Cell proliferation assay", "type": "cell-based", "settings": "0, 3, 10 or 30 μM peptide, four-day treatment; cell number as % of untreated"}, "[2]": {"assay": "Plasma pharmacokinetics in mice", "type": "in vivo", "settings": "single intravenous (i.v.) injection of 0.597 mg/kg"}, "c-Abl": {"tested_on": "c-Abl", "assay": "c-Abl activity", "type": "cell-based, human", "settings": "UM-SCC47, 30 μM peptide for 3 hr"}, "HaCaT keratinocytes": {"tested_on": "HaCaT keratinocytes", "assay": "Cell cycle analysis by flow cytometry", "type": "cell-based, human", "settings": "30 uM peptide, 16 hr"}, "NOKs and MCF10A cells": {"tested_on": "NOKs and MCF10A cells", "assay": "DNA synthesis by EdU incorporation, non-tumorigenic cells", "type": "cell-based, human", "settings": "30 μM peptide for 1, 3 or 6 hr (up to 16 hr), then EdU 45 min"}, "p38MAPK": {"tested_on": "p38MAPK", "assay": "p38MAPK activation", "type": "cell-based, human", "settings": "NOKs, 30 μM peptide, 15 min to 16 hr"}, "UM-SCC47 cells [3]": {"tested_on": "UM-SCC47 cells", "type": "cell-based, human", "settings": "UM-SCC47, 30 μM peptide for 3 hr, EdU for the last 45 min"}, "PCNA": {"tested_on": "PCNA", "assay": "DNA-bound PCNA staining on chromatin", "type": "cell-based, human", "settings": "UM-SCC47, detergent-extracted after 3 hr treatment with 30 μM peptide"}, "[4]": {"assay": "Stability of peptide incubated in human plasma", "type": "in vitro ADME", "settings": "incubated in PBS or human plasma for up to 72h at 37°C, then tested for activity"}, "UM-SCC47 cells [5]": {"tested_on": "UM-SCC47 cells", "assay": "Cell cycle analysis by flow cytometry", "type": "cell-based, human", "settings": "UM-SCC47, 30 uM peptide"}, "Chk1, Chk2, H2AX": {"tested_on": "Chk1, Chk2, H2AX", "assay": "DNA damage response effector activation by western blot", "type": "cell-based, human", "settings": "UM-SCC47 or MDA-MB-231 cells, 30 μM peptide up to 6 hr"}}}
{"sequence": "SSTNEGFR", "values": [{"measurement": "growth of non-tumorigenic cells", "setting": "[1]", "result": "not affected"}, {"measurement": "half-life in plasma", "setting": "[2]", "result": "~ 42 hr"}, {"measurement": "c-Abl activity (pY245, pY412)", "setting": "c-Abl", "result": "inactivates c-Abl"}, {"measurement": "cells in G1", "setting": "HaCaT keratinocytes", "result": 36.6, "unit": "%"}, {"measurement": "cells in S", "setting": "HaCaT keratinocytes", "result": 57.0, "unit": "%"}, {"measurement": "DNA synthesis (EdU incorporation)", "setting": "NOKs and MCF10A cells", "result": "no inhibition of DNA synthesis"}, {"measurement": "p38MAPK activation in non-transformed cells", "setting": "p38MAPK", "result": "fail to activate p38MAPK"}, {"measurement": "EdU incorporation", "setting": "UM-SCC47 cells [3]", "result": "near complete loss of EdU incorporation"}, {"measurement": "PCNA retention on chromatin", "setting": "PCNA", "result": "loss of PCNA"}, {"measurement": "stability in human plasma", "setting": "[4]", "result": "remarkably stable"}, {"measurement": "cells in G1", "setting": "UM-SCC47 cells [5]; 3 hr", "result": 53.1, "unit": "%"}, {"measurement": "cells in G2", "setting": "UM-SCC47 cells [5]; 3 hr", "result": 0.0, "unit": "%"}, {"measurement": "cells in S", "setting": "UM-SCC47 cells [5]; 3 hr", "result": 46.9, "unit": "%"}, {"measurement": "cells in G1", "setting": "UM-SCC47 cells [5]; 16 hr", "result": 48.5, "unit": "%"}, {"measurement": "cells in G2", "setting": "UM-SCC47 cells [5]; 16 hr", "result": 1.7, "unit": "%"}, {"measurement": "cells in S", "setting": "UM-SCC47 cells [5]; 16 hr", "result": 49.8, "unit": "%"}, {"measurement": "activation of DNA damage response effectors (Chk1, Chk2, γH2AX)", "setting": "Chk1, Chk2, H2AX", "result": "fails to activate Chk1 or Chk2"}]}
